pIC50, pKi: −log10 of the molar value.
Experiments:
[1] = target: T1, Norepinephrine transporter (h) (Homo sapiens, UniProt P23975); test: Norepinephrine transporter (h) (antagonist radioligand) competition binding; conditions: for nH: Norepinephrine transporter (h) (antagonist radioligand)
T1 construct: Eurofins/Cerep (contract testing)
Protocol: For antagonist assays, Kb affinity values were calculated from IC50 values using GraphPad Prism 9 (San Diego, Calif. USA).

Serotonin transporter = target: T2, Serotonin transporter (Rattus norvegicus, UniProt P31652); test: Serotonin transporter uptake (rat brain synaptosomes); assay type: biochemical
T2 construct: tissue Eurofins/Cerep (contract testing); host or cells: rat brain synaptosomes (per the earlier reading)
Protocol: (§1) Compounds (1) and (2) were tested at several concentrations for IC50 or EC50 determination at target receptors. […] For antagonist assays, Kb affinity values were calculated from IC50 values using GraphPad Prism 9 (San Diego, Calif. USA).

Dopamine transporter = target: T3, Dopamine transporter (Homo sapiens, UniProt Q01959); test: Dopamine transporter uptake (h); assay type: cell-based
T3 construct: Eurofins/Cerep (contract testing)
Protocol: as §1

5-HT transporter (h) = target: T4, 5-HT transporter (h) (Homo sapiens, UniProt P31645); test: Serotonin transporter (antagonist radioligand) competition binding; conditions: for Affinity (Ki) SERT: Eurofins/Cerep, N.B. denotes no binding at 100 μM
T4 construct: Eurofins/Cerep (contract testing)
Protocol: as §1

human NET [2] = target: T5, human NET (Homo sapiens, UniProt P23975); conditions: read-out: Uptake Inhibition (IC50) NET; from Eshleman et al. 2017; cited from earlier work
M2Rs = target: T6, M2Rs (Homo sapiens, UniProt P08172); test: M2R β-arrestin recruitment; assay type: cell-based
T6 sequence (P08172 1-466): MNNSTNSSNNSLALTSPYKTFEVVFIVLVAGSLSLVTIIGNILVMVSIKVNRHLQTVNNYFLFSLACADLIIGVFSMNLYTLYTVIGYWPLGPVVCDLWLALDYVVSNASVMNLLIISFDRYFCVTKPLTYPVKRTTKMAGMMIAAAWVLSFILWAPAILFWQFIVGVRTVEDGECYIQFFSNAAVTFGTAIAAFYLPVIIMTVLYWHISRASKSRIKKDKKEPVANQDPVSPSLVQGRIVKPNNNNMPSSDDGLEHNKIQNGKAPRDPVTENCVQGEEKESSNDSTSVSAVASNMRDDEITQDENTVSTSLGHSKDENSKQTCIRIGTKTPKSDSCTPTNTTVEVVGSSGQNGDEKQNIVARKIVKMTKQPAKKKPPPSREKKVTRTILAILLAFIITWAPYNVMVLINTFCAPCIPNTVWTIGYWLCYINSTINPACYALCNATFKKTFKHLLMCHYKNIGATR
Excerpt: Data are shown as normalized means (±SEM) of two, independent determinations, with oxotremorine tested at each concentration in duplicate and α-PHP tested in quadruplicate. [*Basal signaling is defined as the normalized RLU emitted by untreated cells.]

human SERT [3] = target: T7, human SERT (Homo sapiens, UniProt P31645); conditions: read-out: Uptake Inhibition (IC50) SERT; from Eshleman et al. 2017; cited from earlier work
human NET [4] = target: T5, human NET; conditions: from Eshleman et al. 2017, cited from earlier work
human M1Rs = target: T8, human M1Rs (Homo sapiens, UniProt P11229); test: M1R phosphoinositide hydrolysis (IP-One HTRF); assay type: cell-based
T8 construct: host or cells: HEK293 (CRL-1573, ATCC), transient
T8 sequence (P11229 1-460): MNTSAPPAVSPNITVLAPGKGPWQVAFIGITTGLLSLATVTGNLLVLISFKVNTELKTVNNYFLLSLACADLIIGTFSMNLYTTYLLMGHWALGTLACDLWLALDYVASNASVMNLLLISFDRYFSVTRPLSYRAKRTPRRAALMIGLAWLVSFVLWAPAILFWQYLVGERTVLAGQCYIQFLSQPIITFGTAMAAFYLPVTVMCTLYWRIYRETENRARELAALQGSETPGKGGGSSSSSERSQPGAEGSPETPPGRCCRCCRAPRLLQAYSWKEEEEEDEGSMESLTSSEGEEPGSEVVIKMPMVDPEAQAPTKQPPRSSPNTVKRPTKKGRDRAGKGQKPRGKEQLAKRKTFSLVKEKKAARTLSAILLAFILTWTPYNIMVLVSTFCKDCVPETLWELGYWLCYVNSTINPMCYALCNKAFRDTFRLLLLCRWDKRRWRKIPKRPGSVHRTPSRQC

[5] = test system: mice on the FVB background; test: Defecation (fecal pellets) / gastrointestinal motility in mice; assay type: in vivo; conditions: 2.8 mg/kg, s.c.
Protocol: (§2) Since functional inhibition of neurotransmitter transporters, particularly DAT, is classically known to cause psychomotor stimulation, the ability of Compound (1) to induce this effect in mice was assessed, directly comparing results to α-PHP, a pyrrolidine-substituted analog of Compound (1). Adult male and female mice on the FVB background were injected subcutaneously and then immediately placed inside of an open field chamber, where their activity was recorded automatically for 20-min by an overhead camera connected to a PC running EthoVision XT software. […] Data are means (±SEM).
Consistent with pre-synaptic M2R antagonist activity, also observed was an increase in defecation caused by Compound (1) (FIG. 4). […] Regarding FIG. 4, Compound (1) (2.8 mg/kg, s.c.) increased gastrointestinal motility compared to vehicle and α-PHP (2.8 mg/kg, s.c.) treated mice. Scatter dot plots with means (±SEMs).

human DAT [6] = target: T9, human DAT (Homo sapiens, UniProt Q01959); conditions: from Eshleman et al. 2017, cited from earlier work
human SERT [7] = target: T7, human SERT; conditions: read-out: Affinity (Ki) SERT; from Eshleman et al. 2017; cited from earlier work
human DAT [8] = target: T9, human DAT; conditions: read-out: Uptake Inhibition (IC50) DAT; from Eshleman et al. 2017; cited from earlier work
[9] = test system: mice on the FVB background; test: Open field locomotor activity in mice; assay type: in vivo; conditions: 2.8 mg/kg, s.c., 20-min open field
Protocol: as §2

T5 sequence (P23975 whole entry): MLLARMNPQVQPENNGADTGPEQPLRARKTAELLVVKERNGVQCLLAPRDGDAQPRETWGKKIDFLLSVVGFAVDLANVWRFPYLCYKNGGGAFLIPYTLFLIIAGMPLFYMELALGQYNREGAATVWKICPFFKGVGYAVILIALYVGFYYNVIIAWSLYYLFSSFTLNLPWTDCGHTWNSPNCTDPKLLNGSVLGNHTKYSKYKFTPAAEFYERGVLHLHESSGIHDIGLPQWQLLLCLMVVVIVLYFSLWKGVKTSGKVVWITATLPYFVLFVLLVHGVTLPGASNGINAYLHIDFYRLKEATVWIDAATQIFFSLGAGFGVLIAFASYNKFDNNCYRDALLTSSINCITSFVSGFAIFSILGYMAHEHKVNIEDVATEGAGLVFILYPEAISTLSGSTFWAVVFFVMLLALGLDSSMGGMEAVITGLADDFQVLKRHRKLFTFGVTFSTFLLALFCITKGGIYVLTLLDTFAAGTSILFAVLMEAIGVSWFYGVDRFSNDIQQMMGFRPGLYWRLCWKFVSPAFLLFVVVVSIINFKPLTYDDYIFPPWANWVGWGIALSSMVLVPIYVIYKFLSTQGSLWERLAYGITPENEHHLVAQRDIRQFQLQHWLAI
T1 sequence (P23975 whole entry): as above
T9 sequence (Q01959 whole entry): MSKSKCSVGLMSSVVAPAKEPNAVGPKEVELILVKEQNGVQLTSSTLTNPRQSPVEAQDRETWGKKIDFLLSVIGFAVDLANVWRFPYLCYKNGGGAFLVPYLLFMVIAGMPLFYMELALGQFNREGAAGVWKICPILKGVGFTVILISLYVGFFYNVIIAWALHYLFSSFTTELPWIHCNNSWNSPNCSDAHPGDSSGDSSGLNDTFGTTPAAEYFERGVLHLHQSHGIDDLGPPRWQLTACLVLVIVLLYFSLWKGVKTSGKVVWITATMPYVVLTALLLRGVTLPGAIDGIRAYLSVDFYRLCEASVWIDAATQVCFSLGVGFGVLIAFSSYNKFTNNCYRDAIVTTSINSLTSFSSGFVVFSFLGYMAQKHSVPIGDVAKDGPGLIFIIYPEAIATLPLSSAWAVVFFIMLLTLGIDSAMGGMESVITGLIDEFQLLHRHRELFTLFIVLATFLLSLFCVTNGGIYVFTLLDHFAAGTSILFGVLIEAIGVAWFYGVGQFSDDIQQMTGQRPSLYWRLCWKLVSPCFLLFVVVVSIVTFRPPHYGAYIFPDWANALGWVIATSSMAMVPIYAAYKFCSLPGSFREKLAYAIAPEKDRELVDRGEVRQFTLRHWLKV
T4 sequence (P31645 whole entry): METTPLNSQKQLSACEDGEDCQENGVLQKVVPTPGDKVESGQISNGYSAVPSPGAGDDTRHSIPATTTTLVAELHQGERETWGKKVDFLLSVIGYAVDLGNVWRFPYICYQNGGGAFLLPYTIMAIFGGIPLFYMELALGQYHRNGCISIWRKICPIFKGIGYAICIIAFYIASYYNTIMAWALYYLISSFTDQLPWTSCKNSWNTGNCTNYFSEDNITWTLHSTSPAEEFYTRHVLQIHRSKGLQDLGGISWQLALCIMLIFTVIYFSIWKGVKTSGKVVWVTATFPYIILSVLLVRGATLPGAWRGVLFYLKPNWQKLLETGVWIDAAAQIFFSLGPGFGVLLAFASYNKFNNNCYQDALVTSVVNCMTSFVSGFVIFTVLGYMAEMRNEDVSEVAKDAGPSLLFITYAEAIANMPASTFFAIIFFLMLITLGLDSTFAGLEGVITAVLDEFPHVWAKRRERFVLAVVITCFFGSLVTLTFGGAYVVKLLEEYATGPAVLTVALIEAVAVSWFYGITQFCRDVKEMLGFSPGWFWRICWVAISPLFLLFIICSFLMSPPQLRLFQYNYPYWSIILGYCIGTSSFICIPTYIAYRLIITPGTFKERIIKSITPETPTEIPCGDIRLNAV
T2 sequence (P31652 whole entry): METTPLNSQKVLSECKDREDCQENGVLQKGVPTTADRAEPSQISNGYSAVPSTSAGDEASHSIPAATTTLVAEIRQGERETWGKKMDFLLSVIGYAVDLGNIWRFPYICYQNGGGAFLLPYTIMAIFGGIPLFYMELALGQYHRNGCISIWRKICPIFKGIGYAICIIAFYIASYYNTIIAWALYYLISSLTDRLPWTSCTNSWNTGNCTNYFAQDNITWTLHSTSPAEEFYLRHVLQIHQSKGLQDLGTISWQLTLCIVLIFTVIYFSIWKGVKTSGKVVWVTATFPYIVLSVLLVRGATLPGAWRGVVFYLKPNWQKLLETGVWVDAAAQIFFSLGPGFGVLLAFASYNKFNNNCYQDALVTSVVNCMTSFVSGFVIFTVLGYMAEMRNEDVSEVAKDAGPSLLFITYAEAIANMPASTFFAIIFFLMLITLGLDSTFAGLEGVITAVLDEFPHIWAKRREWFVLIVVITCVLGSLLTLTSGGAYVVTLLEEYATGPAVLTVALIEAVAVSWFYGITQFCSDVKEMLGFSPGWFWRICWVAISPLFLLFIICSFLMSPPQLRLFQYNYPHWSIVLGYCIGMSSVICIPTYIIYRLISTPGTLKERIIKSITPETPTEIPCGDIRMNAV
T3 sequence (Q01959 whole entry): as the sequence (Q01959 whole entry) above
T7 sequence (P31645 whole entry): as the sequence (P31645 whole entry) above

| SMILES | pIC50 [1] | pKi [1] | nH [1] | pIC50 (Serotonin transporter) | pIC50 (Dopamine transporter) | pIC50 (5-HT transporter (h)) | Affinity (Ki) SERT (5-HT transporter (h)) | number of fecal pellets (defecation, gastrointestinal motility) [5] | locomotor activity [9] | also measured |
| --- | --- | --- | --- | --- | --- | --- | --- | --- | --- | --- |
| CCCCC(C(=O)c1ccccc1)N1CCCCCC1 (stereo not drawn) [Compound (2), 2-(azepan-1-yl)-1-phenylhexan-1-one] | 4.89 | 5.01 | 0.9 | 4.92 | 7.15 | < 4.00 | neither compound exhibiting demonstrable binding at SERT |  |  | Affinity (Ki) SERT (5-HT transporter (h); listed as Compound 2): N.B. |
| CCCCC(C(=O)c1ccccc1)N1CCCC1 (stereo not drawn) [α-PHP, 1-phenyl-2-(pyrrolidin-1-yl)hexan-1-one] |  |  |  |  |  |  |  | no significant difference was observed between the vehicle and α-PHP groups | robustly increased locomotor activity compared to vehicle | pIC50 (human NET [2]): 7.52; Kb (M2Rs): 0.501 µM; pIC50 (human SERT [3]): 4.40; affinity at NET, fold higher than α-PPP (human NET [4]): 6 fold; pKi (human NET [4]; read-out: Affinity (Ki) NET): 6.52; Kb (human M1Rs): 1.38 µM; affinity at DAT, fold higher than α-PPP (human DAT [6]): 81 fold; pKi (human DAT [6]; read-out: Affinity (Ki) DAT): 7.80; pKi (human SERT [7]): 4.48; pIC50 (human DAT [8]): 7.66 |
| CCCCC(C(=O)c1ccccc1)N1CCCCC1 (stereo not drawn) [Compound (1), 1-phenyl-2-(piperidin-1-yl)hexan-1-one] | 5.06 | 5.19 | 1.6 | 4.43 | 7.33 | < 4.00 | neither compound exhibiting demonstrable binding at SERT | significantly higher than both vehicle (p<0.0001) and α-PHP treated mice | nearly indistinguishable from vehicle-treated mice | Affinity (Ki) SERT (5-HT transporter (h); listed as Compound 1): N.B. |
